Results reported in patent US20250296922A1, “POLYSUBSTITUTED PYRROLIDINE DERIVATIVE, PREPARATION METHOD THEREFOR AND USE THEREOF” (SHANGHAI WENNAI THERAPEUTICS CO LTD, priority 2023, published 2025).

Biological target: Nav1.8 sodium channel (Homo sapiens (Human), UniProt Q9Y5Y9)
Assay: NaV1.8 blocking activity, manual patch clamp
Format: cell-based
Conditions: CHO cell line stably expressing Nav1.8
Description: The NaV1.8 blocking activity was determined by using a manual patch clamp technique to detect the effect of the subject on the channel currents of stably overexpressed Nav1.8.
CHO cell line stably expressing the Nav1.8 sodium channel was used for the experiments, gene information: sodium channel, voltage-gated, type 8, alpha (SCN10A), cDNA strictly similar to GenBank accession number: NM 006514.
Cells were cultured in HAM'S/F-12 medium containing 10% foetal bovine serum and 10 μg/mL Blasticidin, 200 μg/mL Hygromycin B, and 100 μg/mL Zeocin at 37° C., 5% CO2. For expansion or maintenance cultures, cells were treated with 0.25%-Trypsin-EDTA, washed and centrifuged, and then inoculated in 6-cm cell culture dishes with 2.5×10^5lls per cell culture dish (final volume: 5 mL).
Prior to the patch clamp detection, cells were separated with 0.25%-Trypsin-EDTA and 6.5×10^3 cells were spread onto coverslips and incubated (final volume: 500 μL) in 24-well plates for 18 hours, then the test was performed.
50 mM CsCl, 10 mM NaCl, 10 mM HEPES, 60 mM CsF, 20 mM EGTA, and pH was adjusted to 7.2 with CsOH. • Instrument information is provided in Table 2 below:
Prior to Nav1.8 channel current testing, a blank control solution (DMSO) was diluted into 10 ml of extracellular fluid as the working solution. Positive controls and subjects were first diluted with different doses of DMSO depending on the final concentration before being diluted as working solution using extracellular fluid. 100 nM TTX was added to each working solution to block the TTX-S current. The working solution was sonicated for 20 min before performing the patch clamp test detection.
Patch clamp manipulation: firstly, the capillary glass tube was drawn into a recording electrode using a microelectrode puller, then the electrode filled with intracellular fluid was loaded into the microelectrode holder, and the microelectrode manipulator was manoeuvred under an inverted microscope to immerse the electrode into the extracellular fluid and record the electrode resistance (Rpip). The electrode was then slowly contacted to the cell surface and negative pressure suction was given to form a GQ2 seal. At this time, fast capacitance compensation was performed and negative pressure was continually applied to suction through the cell membrane to form a whole-cell recording pattern. Finally, slow capacitance compensation was performed and experimental parameters such as series resistance (Rs) were recorded. No leakage compensation was given.
Drug administration was initiated when the Nav1.8 current was stabilized for whole-cell recordings, and the next concentration was detected after each drug concentration had acted for approximately 5 min (or until the current was stable). Cell-lined coverslips were placed in the recording bath under an inverted microscope, and the blank control external solution as well as the working solution of the compound to be tested flowed sequentially from low to high concentrations through the recording bath by using gravitational perfusion and thus acted on the cells, and a peristaltic pump was used to exchange fluids during the recording. The current detected by each cell in the compound-free external fluid served as its own control. Each concentration was repeated independently 2-3 times. All electrophysiological experiments were performed at room temperature.
The voltage stimulation scheme for whole-cell patch-clamp recording of Nav1.8 currents was as follows: when a whole-cell seal was formed, the voltage was clamped at −120 mV. The resting state recording of sodium currents was performed by maintaining the voltage for 5s and then depolarizing it to 0 mV, and then administering a depolarizing pulse (TP1) to 0 m V for 50 ms for detecting the resting state sodium currents. For half-inactivated state recording, the voltage was first stepped at different voltages and maintained for 5s and then a depolarizing pulse was given to 0 mV to detect the Vhalf. […]

Chain of Nav1.8 sodium channel (Q9Y5Y9 whole entry): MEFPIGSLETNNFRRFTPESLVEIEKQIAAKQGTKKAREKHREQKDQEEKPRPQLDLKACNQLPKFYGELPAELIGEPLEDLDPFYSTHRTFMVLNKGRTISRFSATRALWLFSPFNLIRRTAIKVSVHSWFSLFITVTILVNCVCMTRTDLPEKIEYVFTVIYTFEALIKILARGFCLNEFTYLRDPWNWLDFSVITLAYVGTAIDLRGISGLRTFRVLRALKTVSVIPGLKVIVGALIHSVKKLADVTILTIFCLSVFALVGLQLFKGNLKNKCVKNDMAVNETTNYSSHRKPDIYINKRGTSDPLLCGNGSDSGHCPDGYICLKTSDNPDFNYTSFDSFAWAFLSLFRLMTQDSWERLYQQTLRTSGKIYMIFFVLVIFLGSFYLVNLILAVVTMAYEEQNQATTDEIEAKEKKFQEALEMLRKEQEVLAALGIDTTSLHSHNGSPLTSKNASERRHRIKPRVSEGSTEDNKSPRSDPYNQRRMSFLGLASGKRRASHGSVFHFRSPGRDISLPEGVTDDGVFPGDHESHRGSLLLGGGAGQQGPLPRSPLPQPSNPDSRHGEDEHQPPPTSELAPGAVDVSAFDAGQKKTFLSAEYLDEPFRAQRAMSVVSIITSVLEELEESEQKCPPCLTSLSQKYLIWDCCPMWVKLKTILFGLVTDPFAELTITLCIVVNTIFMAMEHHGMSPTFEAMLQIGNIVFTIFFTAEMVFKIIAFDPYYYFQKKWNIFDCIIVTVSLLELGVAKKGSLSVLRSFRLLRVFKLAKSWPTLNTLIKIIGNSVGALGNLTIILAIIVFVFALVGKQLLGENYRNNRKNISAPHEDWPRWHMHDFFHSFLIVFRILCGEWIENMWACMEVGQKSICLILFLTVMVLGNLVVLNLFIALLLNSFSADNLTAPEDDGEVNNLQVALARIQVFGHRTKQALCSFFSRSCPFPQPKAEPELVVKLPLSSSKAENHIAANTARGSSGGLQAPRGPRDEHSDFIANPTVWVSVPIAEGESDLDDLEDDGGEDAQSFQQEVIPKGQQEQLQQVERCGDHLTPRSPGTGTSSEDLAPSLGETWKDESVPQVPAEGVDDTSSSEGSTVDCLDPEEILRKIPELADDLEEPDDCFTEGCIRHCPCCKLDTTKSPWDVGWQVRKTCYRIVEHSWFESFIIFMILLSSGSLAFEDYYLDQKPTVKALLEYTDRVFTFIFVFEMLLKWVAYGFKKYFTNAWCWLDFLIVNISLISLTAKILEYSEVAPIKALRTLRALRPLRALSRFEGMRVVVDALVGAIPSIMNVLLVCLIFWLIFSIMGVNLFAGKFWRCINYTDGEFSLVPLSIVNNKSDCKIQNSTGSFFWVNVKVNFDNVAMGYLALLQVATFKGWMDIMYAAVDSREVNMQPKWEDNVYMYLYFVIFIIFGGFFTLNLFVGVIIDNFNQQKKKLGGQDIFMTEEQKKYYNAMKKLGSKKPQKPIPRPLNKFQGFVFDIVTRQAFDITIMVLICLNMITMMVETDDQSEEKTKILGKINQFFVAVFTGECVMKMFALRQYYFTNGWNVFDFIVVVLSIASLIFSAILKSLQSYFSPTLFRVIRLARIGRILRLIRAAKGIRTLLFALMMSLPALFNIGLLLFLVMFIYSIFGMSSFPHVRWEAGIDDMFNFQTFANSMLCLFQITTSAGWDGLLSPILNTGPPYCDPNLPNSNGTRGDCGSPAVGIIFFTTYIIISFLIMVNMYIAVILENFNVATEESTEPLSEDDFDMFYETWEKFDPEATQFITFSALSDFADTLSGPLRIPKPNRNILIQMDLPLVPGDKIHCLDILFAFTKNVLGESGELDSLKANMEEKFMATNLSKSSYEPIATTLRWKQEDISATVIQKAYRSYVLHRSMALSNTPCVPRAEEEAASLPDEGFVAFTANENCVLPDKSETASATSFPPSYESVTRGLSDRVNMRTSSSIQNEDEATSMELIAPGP

Compound | Blocking rate (%) @3 nM [%] | Blocking rate(%) @10 nM [%]
4-((2R,3S,4S,5R)-3-(3,4-difluoro-2-(methoxy-d3)phenyl)-4,5-dimethyl-1-(2,2,2-trifluoroacetyl)-5-(trifluoromethyl) pyrrolidine-2-carboxamido)pyridinamide [Compound 17] | 28.89 | 77.24
COc1c([C@@H]2[C@@H](C(=O)Nc3ccnc(C(N)=O)c3)N[C@](C)(C(F)(F)F)[C@@H]2C)ccc(F)c1F [Compound 2, 4-((2S,3R,4R,5S)-3-(3,4-difluoro-2-methoxyphenyl)-4,5-dimethyl-5-(trifluoromethyl)pyrrolidine-2-carboxamido)pyridine amide] |  | 9.30
COc1c([C@H]2[C@H](C(=O)Nc3ccnc(C(N)=O)c3)N(C)[C@@](C)(C(F)(F)F)[C@H]2C)ccc(F)c1F [Compound 3, 4-((2R,3S,4S,5R)-3-(3,4-difluoro-2-methoxyphenyl)-1,4,5-trimethyl-5-(trifluoromethyl)pyrrolidine-2-carboxamido)pyridine amide] |  | 84.03
COc1c([C@@H]2[C@@H](C(=O)Nc3ccnc(C(N)=O)c3)N(C)[C@](C)(C(F)(F)F)[C@@H]2C)ccc(F)c1F [Compound 4, 4-((2S,3R,4R,5S)-3-(3,4-difluoro-2-methoxyphenyl)-1,4,5-trimethyl-5-(trifluoromethyl)pyrrolidine-2-carboxamido)pyridine amide] |  | 6.05
COc1c([C@H]2[C@H](C(=O)Nc3ccc([C@H](O)CO)nc3)N[C@@](C)(C(F)(F)F)[C@H]2C)ccc(F)c1F [Compound 5, (2R,3S,4S,5R)-3-(3,4-difluoro-2-methoxyphenyl)-aza-(6-((S)-1,2-dihydroxyethyl)pyridin-3-yl)-4,5-dimethyl-5-(trifluoromethyl) pyrrolidine-2-carboxamide] | 72.73 | 79.03
COc1c([C@H]2[C@H](C(=O)Nc3ccc([C@@H](O)CO)nc3)N[C@@](C)(C(F)(F)F)[C@H]2C)ccc(F)c1F [Compound 6, (2R,3S,4S,5R)-3-(3,4-difluoro-2-methoxyphenyl)-aza-(6-((R)-1,2-dihydroxyethyl)pyridin-3-yl)-4,5-dimethyl-5-(trifluoromethyl) pyrrolidine-2-carboxamide] | 20.06 | 45.92
COc1c([C@H]2[C@H](C(=O)Nc3ccnc(S(N)(=O)=O)c3)N[C@@](C)(C(F)(F)F)[C@H]2C)ccc(F)c1F [Compound 9, (2R,3S,4S,5R)-3-(3,4-difluoro-2-methoxyphenyl)-4,5-dimethyl-aza-(2-aminosulfonylpyridin-4-yl)-5-(trifluoromethyl) pyrrolidine-2-carboxamide] | 58.06 | 84.91
COc1c([C@H]2[C@H](C(=O)Nc3ccnc(S(C)(=O)=O)c3)N[C@@](C)(C(F)(F)F)[C@H]2C)ccc(F)c1F [Compound 12, (2R,3S,4S,5R)-3-(3,4-difluoro-2-methoxyphenyl)-4,5-dimethyl-N-(2-(methylsulfonyl)pyridin-4-yl)-5-(trifluoromethyl) pyrrolidine-2-carboxamide] | 77.43 | 88.65
C[C@H]1[C@@H](c2ccc(F)c(F)c2OC(F)F)[C@H](C(=O)Nc2ccnc(C(N)=O)c2)N[C@@]1(C)C(F)(F)F [Compound 13, 4-((2R,3S,4S,5R)-3-(2-(difluoromethoxy)-3,4-difluorophenyl)-4,5-dimethyl-5-(trifluoromethyl)pyrrolidine-2-carboxamido)pyridinamide] | 75.71 | 92.01
[2H]C([2H])([2H])Oc1c([C@H]2[C@H](C(=O)Nc3ccc(F)c(C(=N)NO)c3)N[C@@](C)(C(F)(F)F)[C@H]2C)ccc(F)c1F [Compound 14, (2R,3S,4S,5R)-3-(3,4-difluoro-2-(methoxy-d3)phenyl)-N-(4-fluoro-3-(N-hydroxycarbamimidoyl)phenyl)-4,5-dimethyl-5-(trifluoromethyl) pyrrolidine-2-carboxamide] | 91.40 | 99.51
[2H]C([2H])([2H])Oc1c([C@H]2[C@H](C(=O)Nc3ccnc(C(=N)NOC)c3)N[C@@](C)(C(F)(F)F)[C@H]2C)ccc(F)c1F [Compound 15, (2R,3S,4S,5R)-3-(3,4-difluoro-2-(methoxy-d3)phenyl)-N-(2-(N-methoxycarbamimidoyl)pyridin-4-yl)-4,5-dimethyl-5-(trifluoromethyl) pyrrolidine-2-carboxamide] | 35.55 | 79.44
[2H]C([2H])([2H])Oc1c([C@H]2[C@H](C(=O)Nc3ccnc(C(=N)NO)c3)N[C@@](C)(C(F)(F)F)[C@H]2C)ccc(F)c1F [Compound 16, (2R,3S,4S,5R)-3-(3,4-difluoro-2-(methoxy-d3)phenyl)-N-(2-(N-hydroxycarbamimidoyl)pyridin-4-yl)-4,5-dimethyl-5-(trifluoromethyl) pyrrolidine-2-carboxamide] | 6.68 | 25.19
[2H]C([2H])([2H])Oc1c([C@H]2[C@H](C(=O)Nc3cc[n+]([O-])c(C(N)=O)c3)N[C@@](C)(C(F)(F)F)[C@H]2C)ccc(F)c1F [Compound 18, 2-carbamoyl-4-((2R,3S,4S,5R)-3-(3,4-difluoro-2-(methoxy-d3)phenyl)-4,5-dimethyl-5-(trifluoromethyl)pyrrolidine-2-carboxamido)pyridine 1-oxide] | 40.29 | 63.01
C[C@H]1[C@@H](c2ccc(F)c(F)c2OC(F)F)[C@H](C(=O)Nc2ccnc(C(N)=O)c2)N[C@@]1(C)C(F)(F)F [Compound 19, 4-((2R,3S,4S,5R)-3-(2-(difluoromethoxy)-3,4-difluorophenyl)-4,5-dimethyl-5-(trifluoromethyl)pyrrolidine-2-carboxamido)pyridinamide] | 26.22 | 55.68
